SMILES strings stand for the structures. pIC50: −log10 of the molar value.

The test system of the first assay is T1, purified human Hsp90.
T1 construct: purified human Hsp90 (Stressgen, SPP-770)
The assay can be described thus: Hsp90 binding assay: displacement of BODIPY-labeled geldanamycin measured by fluorescence polarization. As to conditions: 5 μM compound; BODIPY-GM 10 nM, Hsp90 30 nM, overnight at room temperature. The essentials:
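Purified human Hsp90 at 30 nM and 10 nM BODIPY-GM tracer were incubated overnight at room temperature with compound in 2% DMSO. The buffer was 20 mM HEPES-KOH pH 7.3, 50 mM KCl, 5 mM MgCl2, 20 mM Na2MoO4, 2 mM DTT. Background-subtracted mP values read at 485/530 nm were normalized to DMSO wells to give % inhibition.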
Background: Polarisation of emitted light reports the rotation of a fluorescent probe.
Consider `CS(=O)(=O)N1CCCC(CCn2cnc(N)c3nc(Sc4cc5c(cc4C#N)OCO5)nc2-3)C1` (stereo not shown) [compound 48, 6-[(6-Amino-3-{2-[1-(methylsulfonyl)piperidin-3-yl]ethyl}-3H-purin-8-yl)thio]-1,3-benzodioxole-5-carbonitrile], for which the “GM displacement from purified Hsp90 measured by FP Inhibition by 5 μM compd. (%)” value turned out to be 77.0%.

As for `CS(=O)(=O)N1CCCC(CCn2cnc(N)c3nc(Sc4cc5c(cc4C#N)OCCO5)nc2-3)C1` (stereo not shown) [compound 53, 7-[(6-Amino-3-{2-[1-(methylsulfonyl)piperidin-3-yl]ethyl}-3H-purin-8-yl)thio]-2,3-dihydro-1,4-benzodioxine-6-carbonitrile], the “GM displacement from purified Hsp90 measured by FP Inhibition by 5 μM compd. (%)” value amounted to 60.0%.

`CS(=O)(=O)N1CCC(CCn2cnc(N)c3nc(Sc4cc5c(cc4C#N)OCCO5)nc2-3)CC1` [compound 55]: the “GM displacement from purified Hsp90 measured by FP Inhibition by 5 μM compd. (%)” value was 26.0%.

Consider `N#Cc1cc2c(cc1Sc1nc3c(N)ncn(CCn4c(=O)n5n(c4=O)CC=CC5)c-3n1)OCO2` [compound 63], for which the “GM displacement from purified Hsp90 measured by FP Inhibition by 5 μM compd. (%)” value stood at 34.0%.

Take `Nc1ncn(CCC2CCN(C=O)CC2)c2nc(Sc3cc4c(cc3[N+](=O)[O-])OCO4)nc1-2` [compound 65, 4-(2-{6-Amino-8-[(6-nitro-1,3-benzodioxol-5-yl)thio]-3H-purin-3-yl}ethyl)piperidine-1-carbaldehyde]: the “GM displacement from purified Hsp90 measured by FP Inhibition by 5 μM compd. (%)” value was found to be 25.0%.

On to `CC(=O)N1CCC(CCn2cnc(N)c3nc(Sc4cc5c(cc4[N+](=O)[O-])OCCO5)nc2-3)CC1` [compound 69, 3-[2-(1-Acetylpiperidin-4-yl)ethyl]-8-[(7-nitro-2,3-dihydro-1,4-benzodioxin-6-yl)thio]-3H-purin-6-amine], for which the “GM displacement from purified Hsp90 measured by FP Inhibition by 5 μM compd. (%)” value was determined as 46.0%.

Regarding `CC(=O)N1CCC(CCn2cnc(N)c3nc(Sc4cc5c(cc4[N+](=O)[O-])OCO5)nc2-3)CC1` [compound 71, 3-[2-(1-Acetylpiperidin-4-yl)ethyl]-8-[(6-nitro-1,3-benzodioxol-5-yl)thio]-3H-purin-6-amine], the “GM displacement from purified Hsp90 measured by FP Inhibition by 5 μM compd. (%)” value is reported as 23.0%.

For the compound `CC(=O)N1CCC(CCn2cnc(N)c3nc(Sc4cc5c(cc4Cl)OCCO5)nc2-3)CC1` [compound 72, 3-[2-(1-Acetylpiperidin-4-yl)ethyl]-8-[(7-chloro-2,3-dihydro-1,4-benzodioxin-6-yl)thio]-3H-purin-6-amine], the “GM displacement from purified Hsp90 measured by FP Inhibition by 5 μM compd. (%)” value stood at 23.0%.

Take `CCC(=O)N1CCC(CCn2cnc(N)c3nc(Sc4cc5c(cc4C#N)C(=O)CC5)nc2-3)CC1` [compound 74, 6-({6-Amino-3-[2-(1-propionylpiperidin-4-yl)ethyl]-3H-purin-8-yl}thio)-3-oxoindane-5-carbonitrile]: the “GM displacement from purified Hsp90 measured by FP Inhibition by 5 μM compd. (%)” value is on record as 18.0%.

As for `COc1ccc(OC(F)(F)F)c(Sc2nc3c(N)ncn(CCC4CCN(C=O)CC4)c-3n2)c1` [compound 78], the “GM displacement from purified Hsp90 measured by FP Inhibition by 5 μM compd. (%)” value is reported as 14.0%.

For `COc1ccc(C#N)c(Sc2nc3c(N)ncn(CCC4CCN(C=O)CC4)c-3n2)c1` [compound 80], the “GM displacement from purified Hsp90 measured by FP Inhibition by 5 μM compd. (%)” value turned out to be 34.0%.

Staying with this assay, now noted: BODIPY-GM 10 nM, Hsp90 30 nM, overnight at room temperature; read-out: GM displacement from purified Hsp90 measured by FP IC 50.
In the case of `CO[C@H](C)C(=O)N1CCC(CCn2c(Sc3cc4c(cc3C#N)OCCO4)nc3c(N)ncnc32)CC1` [compound 44, 7-{[6-Amino-9-(2-{1-[(2R)-2-methoxypropanoyl]piperidin-4-yl}ethyl)-9H-purin-8-yl]thio}-2,3-dihydro-1,4-benzodioxine-6-carbonitrile], the pIC50 is 6.52.

In the case of `COCC(=O)N1CCC(CCn2c(Sc3cc4c(cc3C#N)OCCO4)nc3c(N)ncnc32)CC1` [compound 45, 7-[(6-Amino-9-{2-[1-(methoxyacetyl)piperidin-4-yl]ethyl}-9H-purin-8-yl)thio]-2,3-dihydro-1,4-benzodioxine-6-carbonitrile], the pIC50 is 6.66.

On to `CS(=O)(=O)N1CCCCC1CCn1c(Sc2cc3c(cc2C#N)OCO3)nc2c(N)ncnc21` (stereo not shown) [compound 46, 6-[(6-Amino-9-{2-[1-(methylsulfonyl)piperidin-2-yl]ethyl}-9H-purin-8-yl)thio]-1,3-benzodioxole-5-carbonitrile], for which the pIC50 is 6.15.

As for `CS(=O)(=O)N1CCCC(CCn2c(Sc3cc4c(cc3C#N)OCO4)nc3c(N)ncnc32)C1` (stereo not shown) [compound 47, 6-[(6-Amino-9 {2-[1-(methylsulfonyl)piperidin-3-yl]ethyl}-9H-purin-8-yl)thio]-1,3-benzodioxole-5-carbonitrile], the pIC50 was 7.05.

For `CS(=O)(=O)N1CCC(CCn2c(Sc3cc4c(cc3C#N)OCO4)nc3c(N)ncnc32)CC1` [compound 49, 6-[(6-Amino-9-{2-[1-(methylsulfonyl)piperidin-4-yl]ethyl}-9H-purin-8-yl)thio]-1,3-benzodioxole-5-carbonitrile], the pIC50 was 6.32.

Consider `CCCN1CCCCC1CCn1c(Sc2cc3c(cc2C#N)OCO3)nc2c(N)ncnc21` (stereo not shown) [compound 50, 6-({6-Amino-9-[2-(1-propylpiperidin-2-yl)ethyl]-9H-purin-8-yl}thio)-1,3-benzodioxole-5-carbonitrile], for which the pIC50 is 5.92.

Turning to `CS(=O)(=O)N1CCCCC1CCn1c(Sc2cc3c(cc2C#N)OCCO3)nc2c(N)ncnc21` (stereo not shown) [compound 51, 7-[(6-Amino-9-{2-[1-(methylsulfonyl)piperidin-2-yl]ethyl}-9H-purin-8-yl)thio]-2,3-dihydro-1,4-benzodioxine-6-carbonitrile], the pIC50 was 6.43.

On to `CS(=O)(=O)N1CCCC(CCn2c(Sc3cc4c(cc3C#N)OCCO4)nc3c(N)ncnc32)C1` (stereo not shown) [compound 52, 7-[(6-Amino-9-{2-[1-(methylsulfonyl)piperidin-3-yl]ethyl}-9H-purin-8-yl)thio]-2,3-dihydro-1,4-benzodioxine-6-carbonitrile], for which the pIC50 was 6.82.

As for `CS(=O)(=O)N1CCC(CCn2c(Sc3cc4c(cc3C#N)OCCO4)nc3c(N)ncnc32)CC1` [compound 54, 7-[(6-Amino-9-{2-[1-(methylsulfonyl)piperidin-4-yl]ethyl}-9H-purin-8-yl)thio]-2,3-dihydro-1,4-benzodioxine-6-carbonitrile], the pIC50 is 6.26.

Regarding `N#Cc1cc2c(cc1Sc1nc3c(N)ncnc3n1CCC1CCN(C=O)CC1)OCCO2` [compound 57], the pIC50 was 6.92.

`Cn1nnnc1N1CCC(CCn2c(Sc3cc4c(cc3C#N)OCCO4)nc3c(N)ncnc32)CC1` [compound 58, 7-[(6-Amino-9-{2-[1-(1-methyl-1H-tetrazol-5-yl)piperidin-4-yl]ethyl}-9H-purin-8-yl)thio]-2,3-dihydro-1,4-benzodioxine-6-carbonitrile]: the pIC50 is 6.74.

With `CC(=O)N1CCC(CCn2c(Sc3cc4c(cc3C#N)OCCO4)nc3c(N)ncnc32)CC1` [compound 60, 7-({9-[2-(1-Acetylpiperidin-4-yl)ethyl]-6-amino-9H-purin-8-yl}thio)-2,3-dihydro-1,4-benzodioxine-6-carbonitrile], the pIC50 is 7.22.

Turning to `CCC(=O)N1CCC(CCn2c(Sc3cc4c(cc3C#N)OCO4)nc3c(N)ncnc32)CC1` [compound 61], the pIC50 is 6.70.

As for `Nc1ncnc2c1nc(Sc1cc3c(cc1[N+](=O)[O-])OCO3)n2CCC1CCN(C=O)CC1` [compound 64, 4-(2-{6-Amino-8-[(6-nitro-1,3-benzodioxol-5-yl)thio]-9H-purin-9-yl}ethyl)piperidine-1-carbaldehyde], the pIC50 was 5.82.

As to `Nc1ncnc2c1nc(Sc1cc3c(cc1[N+](=O)[O-])OCCO3)n2CCC1CCN(C=O)CC1` [compound 66, 4-(2-{6-Amino-8-[(7-nitro-2,3-dihydro-1,4-benzodioxin-6-yl)thio]-9H-purin-9-yl}ethyl)piperidine-1-carbaldehyde], the pIC50 was 7.14.

Regarding `CC(=O)N1CCC(CCn2c(Sc3cc4c(cc3[N+](=O)[O-])OCCO4)nc3c(N)ncnc32)CC1` [compound 68, 9-[2-(1-Acetylpiperidin-4-yl)ethyl]-8-[(7-nitro-2,3-dihydro-1,4-benzodioxin-6-yl)thio]-9H-purin-6-amine], the pIC50 was 7.30.

On to `CC(=O)N1CCC(CCn2c(Sc3cc4c(cc3[N+](=O)[O-])OCO4)nc3c(N)ncnc32)CC1` [compound 70], for which the pIC50 is 6.34.

For `CC(=O)N1CCC(CCn2c(Sc3cc4c(cc3Cl)OCCO4)nc3c(N)ncnc32)CC1` [compound 73, 9-[2-(1-Acetylpiperidin-4-yl)ethyl]-8-[(7-chloro-2,3-dihydro-1,4-benzodioxin-6-yl)thio]-9H-purin-6-amine], the pIC50 is 6.59.

In the case of `CC(=O)N1CCC(CCn2c(Sc3cc4c(cc3CC#N)OCO4)nc3c(N)ncnc32)CC1` [compound 75, [6-({9-[2-(1-Acetylpiperidin-4-yl)ethyl]-6-amino-9H-purin-8-yl}thio)-1,3-benzodioxol-5-yl]acetonitrile], the pIC50 was 5.60.

Consider `Nc1ncnc2c1nc(Sc1cc3c(cc1I)CCC3)n2CCC1CCN(C=O)CC1` [compound 76, 4-(2-{6-Amino-8-[(6-iodo-2,3-dihydro-1H-inden-5-yl)thio]-9H-purin-9-yl}ethyl)piperidine-l-carbaldehyde], for which the pIC50 was 7.15.

In the case of `COc1ccc(OC(F)(F)F)c(Sc2nc3c(N)ncnc3n2CCC2CCN(C=O)CC2)c1` [compound 77, 4-[2-(6-Amino-8-{[5-methoxy-2-(trifluoromethoxy)phenyl]thio}-9H-purin-9-yl)ethyl]piperidine-1-carbaldehyde], the pIC50 was 6.40.

On to `COc1ccc(C#N)c(Sc2nc3c(N)ncnc3n2CCC2CCN(C=O)CC2)c1` [compound 79], for which the pIC50 was 6.15.

On to `CCCC(=O)N1CCC(CCn2c(Sc3cc4c(cc3Br)OCCO4)nc3c(N)ncnc32)CC1` [compound 81, 8-[(7-Bromo-2,3-dihydro-1,4-benzodioxin-6-yl)thio]-9-[2-(1-butyrylpiperidin-4-yl)ethyl]-9H-purin-6-amine], for which the pIC50 is 7.00.

The values above are taken from patent publication US20100292255A1, “Therapeutic Compounds and Their Use in Treating Diseases and Disorders” (Myriad Pharmaceuticals, Inc., priority 2007, published 2010).
